Like-named read-outs stand apart in the source and are kept apart here.
Assays:
NFkB = test: STING THP1 reporter assay, NF-κB pathway (SEAP, QUANTI-Blue); assay type: cell-based; settings: THP1-Dual cells, 10% human plasma, 100% activation = 100 μM cGAMP
Description: (§1) THP1-Dual™ cells were derived from the human THP-1 monocyte cell line by stable integration of two inducible reporter constructs. To this end, THP1-Dual™ cells allow the simultaneous study of the NF-κB pathway, by monitoring the activity of SEAP, and the IRF pathway by assessing the activity of a secreted luciferase (Lucia). Both reporter proteins are readily measurable in the cell culture supernatant when using QUANTI-Blue™, a SEAP detection reagent, and QUANTI-Luc™, a luciferase detection reagent.
(§2) THP1-Dual™ cells induce the activation of NF-κB in response to STING agonists. They also trigger the IRF pathway upon stimulation with STING agonists, such as cGAMP. Here, the THP-1-Dual cells were used to assess STING binders for function on the cellular level.
(§3) Serial dilutions of compounds in DMSO were added to low volume 384 well plates at 100 nl/well using an ECHO acoustic dispenser (Labcyte, model 550) to achieve final starting concentration of 100 μM in cell suspension. THP-1 Dual™ STING reporter cells (Invivogen, Dual cells cat # THPD-nfis) were added to the plates with compounds at 15,000 cells in 10 μL per well in RPMI media (Gibco, cat #11875) containing 10% human plasma in a low volume 384-well black wall clear bottom tissue culture plate (Corning, cat #3542) for SEAP assay and low volume solid white plate (Corning, cat #3826) for luciferase assay. One column of the plate was reserved for treatment with cGAMP at 100 μM for 100% activation calculation and one column for no treatment (DMSO only) for baseline activation. Plates were then incubated in 37° C. incubator at 5% CO2 for 20 hours.
(§4) In the SEAP assay, 5 μl of 2× QuantiBlue (Invivogen, cat # Rep-qb2) is added to 384 well black plates seeded with THP1 cells and incubated at 37° C. for 2 hours. Plates were read on the Envision (Perkin Elmer) at 620 nm wavelength (OD620). In the luciferase assay, 5 μl of Quantiluc (Invivogen, Rep-qlc2) is added to white 384 well plates seeded with THP1 cells and read at 5 minutes on the Envision (Perkin Elmer) using a luminescence protocol (RLU). For both cell lines, 100% activation was determined by value (RLU) of THP-1 Dual STING cells stimulated with 100 μM cGAMP (Invivogen, cat # TLRL-NACGA23-5).

[1] = biological target: T1, STING WT: His-TVMV-S-hSTING(155-341)-H232R (Homo sapiens, UniProt Q86WV6, H232R); test: STING HTRF binding assay (time resolved FRET competition), STING WT; settings: 20 nM His-tagged STING cytoplasmic domain, 200 nM fluorescein-labeled cGAMP analog probe, one hour; read-out: HTRF Binding Assays IC50 STING WT
T1 construct: His-TVMV-S-hSTING(155-341)-H232R
T1 sequence (Q86WV6 with tags, fused parts or gaps H232R): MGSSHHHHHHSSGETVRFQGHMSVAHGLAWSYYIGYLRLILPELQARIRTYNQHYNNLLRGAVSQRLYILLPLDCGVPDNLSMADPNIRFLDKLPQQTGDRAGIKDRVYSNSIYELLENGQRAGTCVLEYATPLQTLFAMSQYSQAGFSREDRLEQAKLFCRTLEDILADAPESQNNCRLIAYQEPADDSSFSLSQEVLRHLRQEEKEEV
Method: (§5) A time resolved FRET-based competition binding assay was used to assess test article binding to STING WT and STING AQ. His-tagged STING cytoplasmic domain (WT or AQ) at a concentration of 20 nM was incubated with 2.5 nM Tb-labeled anti-His antibody, test compound, and fluorescein-labeled cGAMP analog probe (BioLog cat. no. C195) at a concentration of 200 nM (STING WT) or 40 nM (STING AQ) in PBS containing 0.005% Tween-20 and 0.1% BSA for one hour. Fluorescence at 495 nm and 520 nm was measured using an EnVision microplate reader to quantify FRET between Tb-labeled anti-His antibody and fluorescein-labeled probe. Background was defined as the signal obtained in the absence of STING protein, and background subtracted FRET ratios were normalized to the maximum signal obtained in the absence of test compound. These values were converted to a percent inhibition. Percent inhibition was determined for test compounds at 11 concentrations. The IC50, defined as the concentration of competing test compound needed to reduce specific binding of the probe by 50%, was calculated using the 4 parameter logistic equation to fit the data

[2] = biological target: T2, STING AQ: His-TVMV-S-hSTING(155-341)-G230A-R293Q (Homo sapiens, UniProt Q86WV6, G230A/H232R/R293Q); test: STING HTRF binding assay (time resolved FRET competition), STING AQ; settings: 20 nM His-tagged STING cytoplasmic domain, 40 nM fluorescein-labeled cGAMP analog probe, one hour; read-out: HTRF Binding Assays IC50 STING AQ
T2 construct: His-TVMV-S-hSTING(155-341)-G230A-R293Q
T2 sequence (Q86WV6 with tags, fused parts or gaps G230A/H232R/R293Q): as the sequence (Q86WV6 with tags, fused parts or gaps H232R) above, with G99A, R162Q counted along it
Method: as §5

IRF3 = test: STING THP1 reporter assay, IRF pathway (secreted luciferase Lucia, QUANTI-Luc); assay type: cell-based; settings: THP1-Dual cells, 10% human plasma, 100% activation = 100 μM cGAMP, luciferase readout, read-out: THP1 Reporter Assays EC50 IRF3
Description: as §1, §2, §3, §4

[3] = Homo sapiens, THP-1, 20 h, SEAP readout OD620, read-out: THP1 Reporter Assays EC50 NFkB
[4] = 20 hours, SEAP readout OD620, read-out: THP1 Reporter Assays EC50 NFkB

Row | Compound | EC50 (NFkB; [3]) [µM] | IC50 [1] [µM] | IC50 [2] [µM] | EC50 (IRF3; Homo sapiens, THP-1, 20 h) [µM] | EC50 (NFkB; [4]) [µM] | EC50 (IRF3; 20 hours) [µM]
1 | Nc1ncnc2c1ncn2[C@@H]1C[C@@H]2COP(O)(=S)O[C@@H]3[C@H](O)[C@@H](COP(O)(=S)OC[C@H]21)O[C@H]3n1cnc2c(N)ncnc21 (single isomer, unassigned) [Example 4-1] | > 100 | > 100 | 2.8 | > 100 | – | –
2 | Nc1ncnc2c1ncn2[C@@H]1C[C@@H]2COP(O)(=S)O[C@@H]3[C@H](O)[C@@H](COP(O)(=S)OC[C@H]21)O[C@H]3n1cnc2c(N)ncnc21 (single isomer, unassigned) [Example 4-2] | – | 3.7 | 0.05 | – | 87 | 72
3 | Nc1ncnc2c1ncn2[C@@H]1O[C@@H]2COP(O)(=S)OC[C@@H]3[C@@H](COP(O)(=S)O[C@H]2[C@H]1F)C[C@H]3n1cnc2c(=O)[nH]cnc21 (single isomer, unassigned) [Example 5-1] | > 100 | 5.7 | 0.1 | – | – | > 100
4 | Nc1ncnc2c1ncn2[C@@H]1O[C@@H]2COP(O)(=S)OC[C@@H]3[C@@H](COP(O)(=S)O[C@H]2[C@H]1F)C[C@H]3n1cnc2c(=O)[nH]cnc21 (single isomer, unassigned) [Example 5-2] | – | 0.44 | 0.02 | – | > 100 | > 100
5 | Nc1ncnc2c1ncn2[C@@H]1O[C@@H]2COP(O)(=S)OC[C@@H]3[C@@H](COP(O)(=S)O[C@H]2[C@H]1F)C[C@H]3n1cnc2c(=O)[nH]cnc21 (single isomer, unassigned) [Example 5-3] | – | 2.7 | 0.04 | – | > 100 | > 100
6 | Nc1ncnc2c1ncn2[C@@H]1O[C@@H]2COP(O)(=S)OC[C@@H]3[C@@H](COP(O)(=S)O[C@H]2[C@H]1F)C[C@H]3n1cnc2c(=O)[nH]cnc21 (single isomer, unassigned) [Example 5-4] | – | 0.12 | 0.01 | – | 91 | 12
7 | Nc1ncnc2c1ncn2[C@@H]1C[C@@H]2COP(O)(=S)O[C@H]3C[C@H](n4ccc5c(Cl)ncnc54)O[C@@H]3COP(=O)(S)OC[C@H]21 (single isomer, unassigned) [Example 6-1] | > 100 | > 100 | 38.9 | > 100 | – | –
8 | Nc1ncnc2c1ncn2[C@@H]1C[C@@H]2COP(O)(=S)O[C@H]3[C@H](F)[C@H](n4ccc5c(Cl)ncnc54)O[C@@H]3COP(O)(=S)OC[C@H]21 (single isomer, unassigned) [Example 7-1] | > 100 | > 100 | 32.7 | > 100 | – | –
9 | Nc1ncnc2c1ncn2[C@@H]1C[C@@H]2COP(O)(=S)O[C@H]3[C@H](F)[C@H](n4ccc5c(Cl)ncnc54)O[C@@H]3COP(O)(=S)OC[C@H]21 (single isomer, unassigned) [Example 7-3] | – | > 100 | 61.1 | – | > 100 | > 100
10 | Nc1ncnc2c1ncn2[C@@H]1C[C@@H]2COP(O)(=S)O[C@H]3[C@H](F)[C@H](n4ccc5c(Cl)ncnc54)O[C@@H]3COP(O)(=S)OC[C@H]21 (single isomer, unassigned) [Example 7-4] | – | 49.1 | 6.3 | – | > 100 | > 100
11 | Nc1ncnc2c1ccn2[C@@H]1O[C@@H]2COP(O)(=S)OC[C@@H]3[C@@H](COP(O)(=S)O[C@H]2[C@@H]1F)C[C@H]3n1cnc2c(N)ncnc21 (single isomer, unassigned) [Example 8-2] | – | 33 | > 100 | – | 97 | > 100
12 | Nc1ncnc2c1ccn2[C@@H]1O[C@@H]2COP(O)(=S)OC[C@@H]3[C@@H](COP(O)(=S)O[C@H]2[C@@H]1F)C[C@H]3n1cnc2c(N)ncnc21 (single isomer, unassigned) [Example 8-3] | – | > 100 | > 100 | – | > 100 | > 100
13 | Nc1ncnc2c1ccn2[C@@H]1O[C@@H]2COP(O)(=S)OC[C@@H]3[C@@H](COP(O)(=S)O[C@H]2[C@@H]1F)C[C@H]3n1cnc2c(N)ncnc21 (single isomer, unassigned) [Example 8-4] | – | > 100 | 15.8 | – | > 100 | > 100
14 | Nc1ncnc2c1ncn2[C@@H]1C[C@@H]2COP(O)(=S)O[C@H]3[C@@H](F)[C@H](n4cnc5c(=O)[nH]c6nccn6c54)O[C@@H]3COP(O)(=S)OC[C@H]21 (single isomer, unassigned) [Example 9-1] | > 100 | > 100 | 20 | > 100 | – | –
15 | Nc1ncnc2c1ncn2[C@@H]1C[C@@H]2COP(O)(=S)O[C@H]3[C@@H](F)[C@H](n4cnc5c(=O)[nH]c6nccn6c54)O[C@@H]3COP(O)(=S)OC[C@H]21 (single isomer, unassigned) [Example 9-2] | – | 4.3 | 0.92 | – | > 100 | > 100
16 | Nc1ncnc2c1ncn2[C@@H]1C[C@@H]2COP(O)(=S)O[C@H]3[C@@H](F)[C@H](n4cnc5c(=O)[nH]c6nccn6c54)O[C@@H]3COP(O)(=S)OC[C@H]21 (single isomer, unassigned) [Example 9-3] | – | 9.1 | 0.35 | – | > 100 | > 100
17 | Nc1ncnc2c1ncn2[C@@H]1C[C@@H]2COP(O)(=S)O[C@H]3[C@@H](F)[C@H](n4cnc5c(=O)[nH]c6nccn6c54)O[C@@H]3COP(O)(=S)OC[C@H]21 (single isomer, unassigned) [Example 9-4] | – | 1.4 | 0.08 | – | > 100 | > 100
18 | NC(=O)c1cccc2c1nnn2[C@@H]1O[C@@H]2COP(O)(=S)OC[C@@H]3[C@@H](COP(O)(=S)O[C@@H]1[C@@H]2F)C[C@H]3n1cnc2c(N)ncnc21 (single isomer, unassigned) [Example 11-1] | > 100 | 20.5 | 3.1 | > 100 | – | –
19 | NC(=O)c1cccc2c1nnn2[C@@H]1O[C@@H]2COP(O)(=S)OC[C@@H]3[C@@H](COP(O)(=S)O[C@@H]1[C@@H]2F)C[C@H]3n1cnc2c(N)ncnc21 (single isomer, unassigned) [Example 11-2] | – | 19.4 | 1.4 | – | > 100 | > 100
20 | NC(=O)c1cccc2c1nnn2[C@@H]1O[C@@H]2COP(O)(=S)OC[C@@H]3[C@@H](COP(O)(=S)O[C@@H]1[C@@H]2F)C[C@H]3n1cnc2c(N)ncnc21 (single isomer, unassigned) [Example 11-3] | – | 0.82 | 0.11 | – | 51 | 70
